Assay results taken from patent US5356903A, “1-cyclopropyl-4-pyridyl-quinolines” (Sterling Winthrop Inc., priority 1993, dated 1994).
Read-outs that look alike come from different tables or passages of the source.

Tests used:
[1] = biological target: T1, human topoisomerase II (Homo sapiens, UniProt P11388); assay: Mammalian Topoisomerase II Inhibition Assay (stabilization of DNA-topo II covalent complex); assay type: biochemical
T1 construct: Topo II was purified from late log phase suspension cultures of HeLa WIS; endogenous in cells; host or cells: HeLa WIS (late log phase suspension cultures); enzyme purified from the cells
Description: Mammalian Topoisomerase II Inhibition Assay Procedure
The inhibition of human topoisomerase II (hereafter topo II) was quantitated by a procedure adapted from that described by Trask et al., EMBO J., 3, 671-676 (1984). The assay quantitates the amount of topo II covalently complexed by DNA at equilibrium during a topo II reaction. This assay determines the potential of a compound to stabilize this complex, which potential is closely related to the cytotoxicity of several clinically useful antineoplastic agents.
Topo II was purified from late log phase suspension cultures of HeLa WIS by an adaptation of the method described by Per et al., Mol. Pharmacol., 32, 17-25 (1987).
Assays (in duplicate) were assembled at 4° C. Assay mix (25 μl ) was distributed in Beckman (No. 265270) 1.5 mL microtitre tubes followed by the addition of 5 μl test to yield the final concentrations of assay components:
4 ng 3' end labeled (^32 p) pBR322 DNA (10^7 DPM/μg)
The assay mix including the test compound was incubated for 20 minutes at 37° C. The reaction was terminated at 37° C. by the addition of 3 μl 10% SDS followed by the addition of 266 μl 10 mM Tris-Cl pH 7.5, 20 μg/ml calf thymus DNA, 1% SDS.
A SDS/protein precipitate was formed by the addition of 28 μl 2.5M KCl followed by chilling on ice for a minimum of 10 minutes. The precipitate was collected and washed with a Brandell cell harvester on a GFB glass fiber filter membrane as follows. The contents of the assay tube were drawn up into the harvester. The tube was then rinsed 7× with 10 mM Tris-Cl pH 7.5, 1 mM EDTA and 100 mM KCl. The precipitate was washed with 1 L of a solution of 10 mM Tris-Cl pH 7.5, 1 mMEDTA, 100 mM KCl followed by 1 L of 95% ethyl alcohol and finally 0.5 L 70% of ethyl alcohol (per 48 samples in each case). After drying, CPM was determined by liquid scintillation counting with 5 ml Biofluor (NEN Research Products) or Readisafe (Beckman Instruments Inc.) cocktail.
Preparation of test compound--A stock solution (6 mg/ml) of test compound was prepared either in 0.1N sodium hydroxide or 0.2N hydrogen chloride. This solution then was diluted 1/5 into water and serially thereafter in either 0.02N sodium hydroxide or 0.04N hydrogen chloride, respectively. The stock solution and serial dilution of the test compound was stored at -20° C. prior to testing.
Screening of test compound--As an initial screen, the test compound was tested at a final concentration of 2, 20 and 200 μg/ml. The compound was then retested at a range of concentrations (usually 2-3× steps) bridging their approximate EC50 's, as estimated by the prescreen.
Controls--A solvent control which indicates the base level of topo II-DNA complexes formed in the absence of the test compound was included in each test. A control, in which topo II was omitted, was included for each test compound at the highest drug concentration tested.
Reference Agent--A dose response curve with mAMSA at 0.01, 0.08, 0.16, 0.32, 1.0 and 10 μg/ml was included in each test.
Data reduction--The EC50 (effective concentration at which 50% of the maximal DNA-topo II complex is formed) of a test compound is defined to be the concentration with activity equal to the EC50 of the reference agent, mAMSA. The maximal DNA-topo II complex formed is taken as that equal to that formed at the nearly saturating dose of mAMSA (10 μg/ml).
The results obtained for representative compounds of the invention in the human topoisomerase II assay procedure expressed as EC50 s (μM) are presented in Table 3.

[2] = tested on: pancreatic ductal adenocarcinoma No. 03 (Panc 03); assay: In vivo antitumor assay, Panc03; parameters: species or system murine tumor in mice
Description: (§1) In vivo Antitumor Assay Procedure
(§2) Mice: Inbred: C3H/He and NCR-nu; and Hybrids: B6D2F1 (C57BL/6 females×DBA/2 males, CD2F1 (Balb/c females×DBS/2 males) and B6C3fl (C57BL/6×C3H) were bred at Wayne State University from strains obtained from the Frederick Cancer Research Facility, Frederick, Md. or purchased from commercial suppliers.
Tumors: Murine Tumor: P388 leukemia and pancreatic ductal adenocarcinoma No. 03 (Panc 03) were used for in vivo testing. Human tumor: A single human tumor, mammary carcinoma MX-1 (MX1) was used for in vivo testing. All tumors are in the Developmental Therapeutics Program frozen tumor respository, maintained by the Biological Testing Branch, Frederick, Md. Each has a detailed description, code identification number, and list of references at the National Tumor Repository. Murine tumors were maintained in the mouse strain of origin and were transplanted in the appropriate F1 hydrid (or the strain of orgin) for therapy trials. Human mammary carcinoma MX-1 (MX1) was maintained as a subcutaneous implant in either athymic Swiss (Cr: NIH (S) - nu) or athymic random bred (NCR-nu) mice and transplanted in NCR-nu for therapy trials.
Chemotherapy: For pancreatic ductal adenocarcinoma No. 3, bilateral tumor implants were used to help ensure a more uniform tumor burden per mouse. The animals necessary to begin an experiment were pooled, implanted bilaterally s.c. on day zero with 30-60-mg tumor fragments using a 12-gauge trocar, and again pooled before randomization to the various treatment and control groups. Chemotherapy was started within three days after tumor implantation while the number of cells per mouse was relatively small (1×10^7 -1×10^8 cells).
End Points for Assessing Antitumor Activity
(§3) Quantitative end points used to assess antitumor activity were percent Increased Life Span (% ILS), and Tumor Growth Inhibition (T/C).
(§4) Endpoints were calculated as follows: […]
Tumors were measured with a caliper once or twice weekly (as needed) until either tumors exceeded 1600 mg or cure was assured. Tumor weights were estimated from two dimensional measurements: Tumor Weight (mg)+(a×b^2)/2, where a and b are the tumor length and width (mm) respectively. Measurements were carried out simultaneously in both treatment and control groups. When the control group tumors reached approximately 750-1500 mg in size (median of group), the median tumor weight of each group was determined (including zeros). The T/C value in percent is an indication of antitumor effectiveness. The % T/C was calculated from the following formula for solid murine tumor models: [formula] where T and C are median tumor weights of the treatment and control groups, respectively. A T/C equal to or less than 42% is considered significant antitumor activity. A T/C value<10% is indicative of a high degree of antitumor activity and is the level used by National Cancer Institute to justify further development if other requirements are met (termed DN-2 level activity). By convention the T/C value for the mammary carcinoma MX-1 model is calculated by the parameter of change in tumor weight. The % T/C was calculated from the following formula for the MX-1 model; [formula] where ΔT and ΔC are the change in mean tumor weight of the test and control groups, respectively, and T (initial) is the initial mean tumor weight of the test group. […] A % T/C≤10 is considered significant activity.

[3] = tested on: P388 leukemia; assay: In vivo antitumor assay, P388 leukemia; parameters: species or system murine tumor in mice
Description: as §1, §2
Tumors: Murine Tumor: P388 leukemia and pancreatic ductal adenocarcinoma No. 03 (Panc 03) were used for in vivo testing. Human tumor: A single human tumor, mammary carcinoma MX-1 (MX1) was used for in vivo testing. All tumors are in the Developmental Therapeutics Program frozen tumor respository, maintained by the Biological Testing Branch, Frederick, Md. Each has a detailed description, code identification number, and list of references at the National Tumor Repository. Murine tumors were maintained in the mouse strain of origin and were transplanted in the appropriate F1 hydrid (or the strain of orgin) for therapy trials. Human mammary carcinoma MX-1 (MX1) was maintained as a subcutaneous implant in either athymic Swiss (Cr: NIH (S) - nu) or athymic random bred (NCR-nu) mice and transplanted in NCR-nu for therapy trials. […]
as §3, §4

[4] = tested on: mammary carcinoma MX-1 (MX1); assay: In vivo antitumor assay, mammary carcinoma MX-1; parameters: species or system human tumor in NCR-nu mice; details: MX-1, sc tumor/ip drug
Description: as §1, §2
Tumors: Murine Tumor: P388 leukemia and pancreatic ductal adenocarcinoma No. 03 (Panc 03) were used for in vivo testing. Human tumor: A single human tumor, mammary carcinoma MX-1 (MX1) was used for in vivo testing. All tumors are in the Developmental Therapeutics Program frozen tumor respository, maintained by the Biological Testing Branch, Frederick, Md. […]
as §3, §4
Tumors were measured with a caliper once or twice weekly (as needed) until either tumors exceeded 1600 mg or cure was assured. […] When the control group tumors reached approximately 750-1500 mg in size (median of group), the median tumor weight of each group was determined (including zeros). […] The % T/C was calculated from the following formula for solid murine tumor models: [formula] where T and C are median tumor weights of the treatment and control groups, respectively. […]

[5] = concentration with activity equal to EC50 of mAMSA, 20 min, 37° C, read-out: Topo II EC50
[6] = footnote *: bell shaped dose response, read-out: Topo II EC50 (bell shaped dose response)

T1 sequence (P11388 whole entry): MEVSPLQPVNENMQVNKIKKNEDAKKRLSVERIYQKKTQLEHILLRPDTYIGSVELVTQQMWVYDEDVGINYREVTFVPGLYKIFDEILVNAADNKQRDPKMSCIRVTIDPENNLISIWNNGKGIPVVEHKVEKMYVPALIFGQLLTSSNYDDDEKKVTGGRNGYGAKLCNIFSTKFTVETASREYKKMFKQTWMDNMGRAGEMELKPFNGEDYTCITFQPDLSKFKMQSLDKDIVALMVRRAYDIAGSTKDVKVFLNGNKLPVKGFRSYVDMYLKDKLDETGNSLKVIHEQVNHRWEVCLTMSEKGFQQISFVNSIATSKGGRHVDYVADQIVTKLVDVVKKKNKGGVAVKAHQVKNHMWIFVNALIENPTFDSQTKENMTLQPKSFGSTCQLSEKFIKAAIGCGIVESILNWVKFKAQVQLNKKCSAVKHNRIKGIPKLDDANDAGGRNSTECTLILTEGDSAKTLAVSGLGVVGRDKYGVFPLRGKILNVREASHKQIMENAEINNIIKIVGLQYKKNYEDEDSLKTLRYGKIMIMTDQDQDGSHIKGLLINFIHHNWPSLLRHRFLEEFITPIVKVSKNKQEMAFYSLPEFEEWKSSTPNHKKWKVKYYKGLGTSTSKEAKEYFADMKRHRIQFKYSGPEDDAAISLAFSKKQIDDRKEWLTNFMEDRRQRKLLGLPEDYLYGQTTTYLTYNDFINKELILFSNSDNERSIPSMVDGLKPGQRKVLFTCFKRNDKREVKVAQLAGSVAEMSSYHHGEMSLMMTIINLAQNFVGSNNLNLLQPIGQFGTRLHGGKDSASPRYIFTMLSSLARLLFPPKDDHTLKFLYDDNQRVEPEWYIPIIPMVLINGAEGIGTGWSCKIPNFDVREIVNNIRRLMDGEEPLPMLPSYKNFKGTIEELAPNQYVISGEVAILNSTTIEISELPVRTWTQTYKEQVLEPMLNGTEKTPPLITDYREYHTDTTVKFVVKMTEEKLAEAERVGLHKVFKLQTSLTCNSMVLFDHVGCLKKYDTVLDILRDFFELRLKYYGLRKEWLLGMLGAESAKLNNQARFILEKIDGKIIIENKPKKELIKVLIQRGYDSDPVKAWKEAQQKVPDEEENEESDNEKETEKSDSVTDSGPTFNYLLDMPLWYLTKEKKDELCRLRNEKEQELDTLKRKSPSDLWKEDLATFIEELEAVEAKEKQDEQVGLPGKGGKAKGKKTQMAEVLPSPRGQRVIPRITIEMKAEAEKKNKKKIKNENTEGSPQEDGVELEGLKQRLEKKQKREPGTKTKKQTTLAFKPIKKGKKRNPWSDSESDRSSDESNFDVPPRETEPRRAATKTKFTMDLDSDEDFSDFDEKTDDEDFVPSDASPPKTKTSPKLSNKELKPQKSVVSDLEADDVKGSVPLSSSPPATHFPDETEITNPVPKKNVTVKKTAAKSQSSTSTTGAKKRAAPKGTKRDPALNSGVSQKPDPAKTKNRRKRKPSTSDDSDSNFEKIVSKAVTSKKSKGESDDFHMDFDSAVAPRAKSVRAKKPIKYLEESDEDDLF

Row | Compound | EC50 [1, 5] [µM] | further results
1 | Cc1cc(-c2c(F)cc3c(=NSc4ccc(Cl)cc4)ccn(C4CC4)c3c2F)cc(C)n1 [Example 18] | 9.4 | 
2 | Cc1cc(-c2c(F)cc3c(=Nc4ccccc4)ccn(C4CC4)c3c2F)cc(C)n1 [Example 22] | 1.9 | 
3 | CON=c1ccn(C2CC2)c2c(F)c(-c3cc(C)nc(C)c3)c(F)cc12 [Example 17] |  | EC50 [1, 6]: 2.6 µM
4 | CC(=O)NN=c1ccn(C2CC2)c2c(F)c(-c3cc(C)nc(C)c3)c(F)cc12 [Example 5] | 20 | 
5 | Cc1cc(-c2c(F)cc3c(=NNc4cnc5ccccc5c4)ccn(C4CC4)c3c2F)cc(C)n1 [Example 16] | 92 | 
6 | Cc1cc(-c2c(F)cc3c(=NCCCN(C)C)ccn(C4CC4)c3c2F)cc(C)n1 [Example 21] | 5.5 | 
7 | Cc1cc(-c2c(F)cc3c(=Nc4ccccn4)ccn(C4CC4)c3c2F)cc(C)n1 [Example 23] | 3.6 | 
8 | Cc1cc(-c2c(F)cc3c(c2F)N(C2CC2)C=CC3=CC#N)cc(C)n1 [Example 8b] | 4 | 
9 | Cc1cc(-c2c(F)cc3c(=O)ccn(C4CC4)c3c2F)cc(C)n1 [Int A] | 17 | In vivo antitumor activity, Panc03 ([2]; Panc03, route not given): Inactive
10 | Cc1cc(-c2c(F)cc3c(=NNc4ccccn4)ccn(C4CC4)c3c2F)cc(C)n1 [Example 2] | 0.98 | % T/C (Tumor Growth Inhibition), Panc03 ([2]; Panc03, sc tumor/iv drug, T/C ≤42% considered significant): 37%; In vivo antitumor activity, P388 ([3]; P388, ip tumor/ip drug): Inactive; In vivo antitumor activity, P388 ([3]; P388, ip tumor/iv drug): Inactive; In vivo antitumor activity, MX-1 [4]: Inactive
11 | CSc1cc[n+](C2CC2)c2c(F)c(-c3cc(C)nc(C)c3)c(F)cc12 [Int C] | 24 | 
12 | Cc1ccc(S(=O)(=O)N=c2ccn(C3CC3)c3c(F)c(-c4cc(C)nc(C)c4)c(F)cc23)cc1 [Example 3] |  | EC50 [1, 6]: 45 µM
13 | Cc1cc(-c2c(F)cc3c(c2F)N(C2CC2)C=CC3=C(C#N)C#N)cc(C)n1 [Example 7] |  | EC50 [1, 6]: 6.3 µM
14 | CCOC(=O)C(C#N)=C1C=CN(C2CC2)c2c1cc(F)c(-c1cc(C)nc(C)c1)c2F [Example 8a] |  | EC50 [1, 6]: 4.8 µM
15 | Cc1cc(-c2c(F)cc3c(=NN4C(=O)c5ccccc5C4=O)ccn(C4CC4)c3c2F)cc(C)n1 [Example 6] | 16 | 
16 | Cc1cc(-c2c(F)cc3c(=Nc4ccc(N)cc4)ccn(C4CC4)c3c2F)cc(C)n1 [Example 25] | 7.6 | 
17 | Cc1cc(-c2c(F)cc3c(=NNc4c5ccccc5nc5ccccc45)ccn(C4CC4)c3c2F)cc(C)n1 [Example 14] | 28 | 
18 | Cc1cc(-c2c(F)cc3c(=NN)ccn(C4CC4)c3c2F)cc(C)n1 [Example 1] | 1.7 | In vivo antitumor activity, Panc03 ([2]; Panc03, sc tumor/iv drug): Inactive
19 | Cc1cc(-c2c(F)cc3c(=S)ccn(C4CC4)c3c2F)cc(C)n1 [Int B] |  | EC50 ([1]; footnote E: endpoint of assay extrapolated, read-out: Topo II EC50 (endpoint of assay extrapolated)): 76 µM
20 | Cc1cc(-c2c(F)cc3c(=NO)ccn(C4CC4)c3c2F)cc(C)n1 [Example 10] | 1.4 | In vivo antitumor activity, Panc03 ([2]; Panc03, sc tumor/iv drug): Inactive
21 | Cc1cc(-c2c(F)cc3c(=Nc4ccccc4O)ccn(C4CC4)c3c2F)cc(C)n1 [Example 24] | 1.6 | 
22 | Cc1cc(-c2c(F)cc3c(=NCCN(C)C)ccn(C4CC4)c3c2F)cc(C)n1 [Example 20] | 14 | 
23 | Cc1cc(-c2c(F)cc3c(=NNCCO)ccn(C4CC4)c3c2F)cc(C)n1 [Example 15] | 3.2 | 
24 | Cc1cc(-c2c(F)cc3c(=NSc4ccccn4)ccn(C4CC4)c3c2F)cc(C)n1 [Example 19] | 3.8 | 
25 | CNN=c1ccn(C2CC2)c2c(F)c(-c3cc(C)nc(C)c3)c(F)cc12 [Example 9] | 1.9 | 
26 | Cc1cc(-c2c(F)cc3c(=NNC(N)=O)ccn(C4CC4)c3c2F)cc(C)n1 [Example 13] | 3.1 | In vivo antitumor activity, Panc03 ([2]; Panc03, sc tumor/iv drug): Inactive
27 | Cc1cc(-c2c(F)cc3c(=NC4CC4)ccn(C4CC4)c3c2F)cc(C)n1 [Example 12] | 2.4 | In vivo antitumor activity, Panc03 ([2]; Panc03, sc tumor/iv drug): Inactive
28 | Cc1cc(-c2c(F)cc3c(=N)ccn(C4CC4)c3c2F)cc(C)n1 [Example 4] | 12 | 
29 | Cc1cc(-c2c(F)cc3c(=NN(C)C)ccn(C4CC4)c3c2F)cc(C)n1 [Example 11] | 2.3 | 
